# Read-outs that look alike come from different tables or passages of the source.
# How the values were obtained:
# large crabgrass = test: Test A pre-/postemergence herbicide test; type: in vivo, Digitaria sanguinalis; settings: for pest or weed control at 125 g/ha / pest or weed control at 500 g/ha: Digitaria sanguinalis, 240 h, read-out: Crabgrass, Large plant response rating; for pest or weed control at 125 g/ha: 125 g ai/ha
# Summary of the method: (§1)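 Plants are held in greenhouse about ten days after treatment, then compared with untreated controls and scored 0 (no effect) to 100 (complete control). Preemergence dosing is a directed soil spray on sown sandy loam; postemergence dosing is spray to runoff at 2–10 cm height.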
# velvetleaf = test: Test A pre-/postemergence herbicide test; type: in vivo, Abutilon theophrasti; settings: for pest or weed control at 125 g/ha / pest or weed control at 500 g/ha: Abutilon theophrasti, 240 h, read-out: Velvetleaf plant response rating; for pest or weed control at 125 g/ha: 125 g ai/ha
# Summary of the method: as §1
# rice = test: Test B pre-/postemergence herbicide test; type: in vivo, Oryza sativa; settings: for Rice plant response rating (0 to 100 scale) / Plant response rating, Rice: preemergence; for plant injury at 125 g/ha: read-out: Rice plant response rating (0 to 100 scale)
# Summary of the method: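 Species tested were Echinochloa crus-galli, Ipomoea coccinea, Xanthium strumarium and Oryza sativa, treated both before emergence and at the 1- to 4-leaf stage; rice and barnyardgrass were also tested under flooding at 2 leaves. Greenhouse incubation lasted 13–15 days before visual 0–100 scoring.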
# woolly cupgrass = test: Test C pre-/postemergence herbicide test; type: in vivo, Eriochloa villosa
# Source text: (§2) Seeds of plant species selected from bermudagrass (Cynodon dactylon (L.) Pers.), Surinam grass (Urochloa decumbens (Staph) R. D. Webster, previously named Brachiaria decumbens Stapf), cocklebur (Xanthium strumarium L.), corn (Zea mays L.), large crabgrass (Digitaria sanguinalis (L.) Scop.), woolly cupgrass (Eriochloa villosa (Thunb.) Kunth), giant foxtail (Setaria faberi Herrm.), goosegrass (Eleusine indica (L.) Gaertn.), johnsongrass (Sorghum halepense (L.) Pers.), kochia (Kochia scoparia (L.) Schrad.), lambsquarters (Chenopodium album L.), morningglory (Ipomoea coccinea L.), eastern black nightshade (Solanum ptycanthum Dunal), yellow nutsedge (Cyperus esculentus L.), pigweed (Amaranthus retroflexus L.), common ragweed (Ambrosia elatior L.), soybean (Glycine max (L.) Merr.), common (oilseed) sunflower (Helianthus annuus L.) and velvetleaf (Abutilon theophrasti Medik.) were planted and treated preemergence with test chemicals formulated in a non-phytotoxic solvent mixture which included a surfactant.
# (§3) At the same time, plants selected from these crop and weed species and also winter barley (Hordeum vulgare L.), blackgrass (Alopecurus myosuroides Huds.), canarygrass (Phalaris minor Retz.), chickweed (Stellaria media (L.) Vill.), downy bromegrass (Bromus tectorum L.), green foxtail (Setaria viridis (L.) Beauv.), Italian ryegrass (Lolium multiflorum Lam.), wheat (Triticum aestivum L.), wild oat (Avenafatua L.) and windgrass (Apera spica-venti (L.) Beauv.) were treated with postemergence applications of some of the test chemicals formulated in the same manner. Plants ranged in height from 2 to 18 cm (1- to 4-leaf stage) for postemergence treatments. Plant species in the flooded paddy test consisted of rice (Oryza sativa), smallflower umbrella sedge (Cyperus difformis L.), ducksalad (Heteranthera limosa (Sw.) Willd.) and barnyardgrass (Echinochloa crus-galli (L.) Beauv.) grown to the 2-leaf stage for testing. Treated plants and controls were maintained in a greenhouse for 12 to 14 days, after which time all species were compared to controls and visually evaluated. Plant response ratings, summarized in Table C, are based on a scale of 0 to 100 where 0 is no effect and 100 is complete control. A dash (-) response means no test result.
# goosegrass = test: Test C pre-/postemergence herbicide test; type: in vivo, Eleusine indica
# Source text: as §2, §3
# johnsongrass = test: Test C pre-/postemergence herbicide test; type: in vivo, Sorghum halepense; settings: for Plant response rating (0 = no effect, 100 = complete control), Johnsongrass: 125 g ai/ha
# Source text: as §2, §3
# Surinam grass = test: Test C pre-/postemergence herbicide test; type: in vivo, Urochloa decumbens
# Source text: as §2, §3
# soybean = test: Test C pre-/postemergence herbicide test; type: in vivo, Glycine max
# Source text: as §2, §3
# [1] = Postemergence, 500 g ai/ha, 0 to 100 scale, 0 no effect, 100 complete control
# [2] = Postemergence, 2000 g ai/ha, 0 to 100 scale, 0 no effect, 100 complete control
# [3] = Preemergence, 2000 g ai/ha, visual rating, 0 to 100 scale (0 no effect, 100 complete control)
# [4] = preemergence, 500 g ai/ha, visual injury, 0 to 100 scale (0 no effect, 100 complete control)
# [5] = 125 g ai/ha, 0 = no effect, 100 = complete control
# [6] = 500 g ai/ha, visual rating, 0 = no effect, 100 = complete control
# [7] = 62 g ai/ha, preemergence, scale 0 to 100
# [8] = 250 g ai/ha, scale 0-100, preemergence
# [9] = 500 g ai/ha, scale 0 to 100 (0 no effect, 100 complete control), visual, 12 to 14 days, preemergence
# [10] = Oryza sativa, pre-emergence, 336 h, 125 g ai/ha, 0 = no effect, 100 = complete control
# [11] = Preemergence, 500 g ai/ha, visual rating, 0 to 100 scale (0 no effect, 100 complete control)
# [12] = Postemergence, 500 g ai/ha, scale 0 to 100
# [13] = Postemergence, 250 g ai/ha, scale 0 to 100, 0 no effect, 100 complete control
# [14] = postemergence, 125 g ai/ha, scale 0 to 100
# [15] = postemergence, 62 g ai/ha, scale 0 to 100
# [16] = post-emergence, Postemergence, 0 to 100 scale, 0 no effect, 100 complete control
# [17] = post-emergence, Postemergence, 500 g ai/ha, 0 to 100 scale, 0 no effect, 100 complete control
# [18] = pre-emergence, preemergence, visual injury, 0 to 100 scale (0 no effect, 100 complete control)
# [19] = pre-emergence, preemergence, 500 g ai/ha, visual injury, 0 to 100 scale (0 no effect, 100 complete control)
smiles,measurement,setting,value
CCOC(=O)c1cccc(NC(=O)c2cc(C(C)(C)C)nn2C)n1 [Compound 313],"Crabgrass, Large plant response rating",large crabgrass; [1],70
same,"Plant response rating, Crabgrass, Large",large crabgrass; [2],100
same,"Crabgrass, Large plant response rating",large crabgrass; [3],95
same,"Crabgrass, Large plant response rating",large crabgrass; [4],85
same,Velvetleaf plant response rating,velvetleaf; [1],40
same,"Plant response rating, Velvetleaf",velvetleaf; [2],50
same,Velvetleaf plant response rating,velvetleaf; [3],80
same,Velvetleaf plant response rating,velvetleaf; [4],65
same,Rice plant response rating (0 to 100 scale),rice; [5],20
same,"Plant response rating, Rice",rice; [6],40
C=CCN(C)C(=O)c1cccc(NC(=O)c2cc(C(C)(C)C)nn2CC)c1 [Compound 285],"Crabgrass, Large plant response rating",large crabgrass; [1],15
same,"Plant response rating, Crabgrass, Large",large crabgrass; [2],35
same,"Crabgrass, Large plant response rating",large crabgrass; [3],85
same,"Crabgrass, Large plant response rating",large crabgrass; [4],60
same,Velvetleaf plant response rating,velvetleaf; [1],60
same,"Plant response rating, Velvetleaf",velvetleaf; [2],75
same,Velvetleaf plant response rating,velvetleaf; [3],40
same,Velvetleaf plant response rating,velvetleaf; [4],35
same,Rice plant response rating (0 to 100 scale),rice; [5],40
same,"Plant response rating, Rice",rice; [6],80
Cc1nn(C(C)(C)C)nc1C(=O)Nc1cccc(C(=O)N2CC=CC2)c1 [Compound 393],"Plant response rating, Cupgrass, Woolly",woolly cupgrass; [7],30
same,"Plant response rating (0 = no effect, 100 = complete control), Cupgrass, Woolly","woolly cupgrass; 125 g ai/ha, preemergence",70
same,"Plant response rating, Cupgrass, Woolly",woolly cupgrass; [8],90
same,"Plant response rating, Cupgrass, Woolly",woolly cupgrass; [9],100
same,"Plant response rating, Goosegrass",goosegrass; [7],85
same,"Plant response rating (0 = no effect, 100 = complete control), Goosegrass","goosegrass; 125 g ai/ha, preemergence",100
same,"Plant response rating, Goosegrass",goosegrass; [8],100
same,"Plant response rating, Goosegrass",goosegrass; [9],100
same,"Plant response rating, Johnsongrass",johnsongrass; [7],95
same,"Plant response rating (0 = no effect, 100 = complete control), Johnsongrass",johnsongrass; preemergence,100
same,"Plant response rating, Johnsongrass",johnsongrass; [8],100
same,"Plant response rating, Johnsongrass",johnsongrass; [9],100
"CCn1nc(C(C)(C)C)c(F)c1C(=O)Nc1cc(C(=O)N(C)C)ccc1F [Compound 276, N-[5-[(dimethylamino)carbonyl]-2-fluorophenyl]-3-(1,1-dimethylethyl)-1-ethyl-4-fluoro-1H-pyrazole-5-carboxamide]",plant injury at 125 g/ha,rice; [10],50%
same,plant injury at 500 g/ha,"rice; Oryza sativa, pre-emergence, 336 h, 500 g ai/ha, visual rating, 0 = no effect, 100 = complete control, read-out: Plant response rating, Rice",80%
CCCCOC(=O)c1cccc(NC(=O)c2cc(C(C)(C)C)nn2CC)c1 [Compound 86],"Crabgrass, Large plant response rating",large crabgrass; [1],20
same,"Plant response rating, Crabgrass, Large",large crabgrass; [2],25
same,"Crabgrass, Large plant response rating",large crabgrass; [11],0
same,"Crabgrass, Large plant response rating","large crabgrass; Preemergence, 2000 g ai/ha, 0 to 100 scale, 0 no effect, 100 complete control",0
same,Velvetleaf plant response rating,velvetleaf; [1],40
same,"Plant response rating, Velvetleaf",velvetleaf; [2],30
same,Velvetleaf plant response rating,velvetleaf; [11],0
same,Velvetleaf plant response rating,velvetleaf; [3],10
same,"Plant response rating, Rice","rice; 125 g ai/ha, 0 to 100 scale, 0 is no effect, 100 is complete control",0
same,Surinam Grass plant response rating,Surinam grass; [12],85
same,"Plant response rating, Surinam Grass",Surinam grass; [13],70
same,"Plant response rating, Surinam Grass",Surinam grass; [14],60
same,"Plant response rating, Surinam Grass",Surinam grass; [15],10
same,"Cupgrass, Woolly plant response rating",woolly cupgrass; [12],85
same,"Plant response rating, Cupgrass, Woolly",woolly cupgrass; [13],80
same,"Plant response rating, Cupgrass, Woolly",woolly cupgrass; [14],70
same,"Plant response rating, Cupgrass, Woolly",woolly cupgrass; [15],50
same,Goosegrass plant response rating,goosegrass; [12],85
same,"Plant response rating, Goosegrass",goosegrass; [13],80
same,"Plant response rating, Goosegrass",goosegrass; [14],60
same,"Plant response rating, Goosegrass",goosegrass; [15],50
same,Johnsongrass plant response rating,johnsongrass; [12],30
same,"Plant response rating, Johnsongrass",johnsongrass; [13],10
same,"Plant response rating, Johnsongrass",johnsongrass; [15],10
same,Soybean plant response rating,soybean; [12],95
same,"Plant response rating, Soybean",soybean; [13],90
same,"Plant response rating, Soybean",soybean; [14],70
same,"Plant response rating, Soybean",soybean; [15],45
CCc1nn(C(C)(C)C)nc1C(=O)Nc1cccc(C(=O)N(C)CC)c1 [Compound 384],"Plant response rating, Cupgrass, Woolly",woolly cupgrass; [7],55
same,"Plant response rating (0 = no effect, 100 = complete control), Cupgrass, Woolly","woolly cupgrass; 125 g ai/ha, preemergence",75
same,"Plant response rating, Cupgrass, Woolly",woolly cupgrass; [8],95
same,"Plant response rating, Goosegrass",goosegrass; [7],85
same,"Plant response rating (0 = no effect, 100 = complete control), Goosegrass","goosegrass; 125 g ai/ha, preemergence",95
same,"Plant response rating, Goosegrass",goosegrass; [8],100
same,"Plant response rating, Johnsongrass",johnsongrass; [7],100
same,"Plant response rating (0 = no effect, 100 = complete control), Johnsongrass",johnsongrass; preemergence,100
same,"Plant response rating, Johnsongrass",johnsongrass; [8],100
C=Cn1nc(C(C)(C)C)cc1C(=O)Nc1cccc(C(C)=O)c1 [Compound 127],"Crabgrass, Large plant response rating",large crabgrass; [1],15
same,"Plant response rating, Crabgrass, Large",large crabgrass; [2],35
same,"Crabgrass, Large plant response rating",large crabgrass; [11],75
same,"Crabgrass, Large plant response rating",large crabgrass; [3],85
same,Velvetleaf plant response rating,velvetleaf; [1],0
same,"Plant response rating, Velvetleaf",velvetleaf; [2],0
same,Velvetleaf plant response rating,velvetleaf; [3],30
same,Velvetleaf plant response rating,velvetleaf; [4],10
"CCNC(=O)c1cccc(NC(=O)c2nc(C(C)(C)C)nn2CC)c1 [Compound 446, 3-(1,1-dimethylethyl)-1-ethyl-N-[3-[(ethylamino)carbonyl]phenyl]-1H-1,2,4-triazole-5-carboxamide]",pest or weed control at 125 g/ha,large crabgrass; [16],45%
same,pest or weed control at 500 g/ha,large crabgrass; [17],65%
same,pest or weed control at 125 g/ha,large crabgrass; [18],10%
same,pest or weed control at 500 g/ha,large crabgrass; [19],40%
same,pest or weed control at 125 g/ha,velvetleaf; [16],30%
same,pest or weed control at 500 g/ha,velvetleaf; [17],60%
same,pest or weed control at 125 g/ha,velvetleaf; [18],10%
same,pest or weed control at 500 g/ha,velvetleaf; [19],20%
"CCc1cn(C(C)(C)C)nc1C(=O)Nc1cccc(C(=O)N(CC)CC)c1 [Compound 168, N-[3-[(diethylamino)carbonyl]phenyl]-1-(1,1-dimethylethyl)-4-ethyl-1H-pyrazole-3-carboxamide]",plant injury at 125 g/ha,rice; [10],0%
